Test results taken from publication PMC6740193 (ACS Omega, 2019).

Biological target: T1, 1-deoxy-D-xylulose-5-phosphate reductoisomerase (DXR) (Escherichia coli, UniProt P45568)
T1 sequence (P45568 1-398): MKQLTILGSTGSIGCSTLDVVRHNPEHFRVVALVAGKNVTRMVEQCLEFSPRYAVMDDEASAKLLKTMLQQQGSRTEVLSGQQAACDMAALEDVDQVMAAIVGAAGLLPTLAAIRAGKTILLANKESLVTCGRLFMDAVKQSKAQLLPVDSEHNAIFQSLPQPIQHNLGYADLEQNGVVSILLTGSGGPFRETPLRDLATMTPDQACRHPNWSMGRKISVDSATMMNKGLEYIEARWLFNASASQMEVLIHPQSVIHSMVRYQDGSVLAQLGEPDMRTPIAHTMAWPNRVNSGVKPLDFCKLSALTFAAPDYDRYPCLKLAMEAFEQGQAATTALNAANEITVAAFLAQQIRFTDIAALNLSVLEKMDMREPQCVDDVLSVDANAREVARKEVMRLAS
Assay: recombinant enzyme assay, NADPH consumption at […] nm
Assay type: biochemical

O=P(O)(O)CCCB(O)O [compound 4, 3-Borono Propyl Phosphonic Acid]
IC50: 128 ± 3 µM
